This data set in a line: Microscopic observation of gel compositions for methylparaben crystalline particles. The format is physicochemical. How it is done: Microscopic observations were performed on additional representative batches of brimonidine topical gel compositions and placebo gel compositions containing 1.25% (w/w) carbomer, POBM and other ingredients. The observations have been done on one tube of each batch, with the microscope Axiolab DRBKT Zeiss no. 023733.01 with a camera ICC Zeiss or the microscope Olympus BX60. The microscopic observations were done at 5° C. and room temperature.
Numerous formulations with different ingredients and varying concentrations of the ingredients were made and tested for the presence of the paraben crystals by microscopic observations. The microbiological quality of the formulations was also analyzed by using acceptance-test criteria in preservative-efficacy testing (PET) in the United States Pharmacopeia (USP) and the European Pharmacopoeia (EP).

Turning to `COC(=O)c1ccc(O)cc1` [methylparaben, methyl parahydroxybenzoate], for the setting “addition of 0.1% of EDTA, POBM at 0.3% (w/w)”, the recrystallization in formulation result is “immediate recrystallization”.
For the molecule `COC(=O)c1ccc([O-])cc1.[Na+]` [Na POBM], for the setting “methylparaben replaced with Na POBM at 0.3% (w/w)”, the “crystalline particles in formulation” value is recorded as “crystalline particles of Na POBM were still observed”.

Values taken from patent US10201517B2, “Brimonidine gel compositions and methods of use” (Galderma Laboratories, L.P., priority 2010, dated 2019).
